In patent publication US10766869B2, “Triazoles for the treatment of demyelinating dieases” (Vertex Pharmaceuticals Incorporated, priority 2015, dated 2020):

Test system: primary rat mixed cortical cells
Assay: In vitro myelination assay (MBP positive myelin strands, fold myelin pixels above background)
Format: cell-based
Conditions: Rattus norvegicus, relative to baseline of no added compound, read-out: Fold myelin pixels above background; for fold induction at 1 µM: 1.0 μM compound; for fold induction at 10 µM: 10.0 μM compound
Procedure, shortened: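 Myelination read as total MBP-immunopositive strand pixels per well, imaged at 10× after fixation on day 14 and expressed relative to untreated wells, at 1.0 and 10.0 μM. Cells: dissociated postnatal day 1 rat cortex, cultured two weeks with compound, re-dosed at days 6 and 10.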

SMILES	fold induction at 1 µM	fold induction at 10 µM
FC(F)c1cccc(-n2cnc(Nc3cc(C(F)F)cc(N4CCN(C5COC5)CC4)n3)n2)c1 [Compound 718, 4-(difluoromethyl)-N-[1-[3-(difluoromethyl)phenyl]-1,2,4-triazol-3-yl]-6-[4-(oxetan-3-yl)piperazin-1-yl]pyridin-2-amine]	10 to 100	100 to 1000
FC(F)c1cc(Nc2ncn(-c3cccc(C(F)(F)F)c3)n2)nc(N2CC(N3CCOCC3)C2)c1 [Compound 719, 4-(difluoromethyl)-6-(3-morpholinoazetidin-1-yl)-N-[1-[3-(trifluoromethyl)phenyl]-1,2,4-triazol-3-yl]pyridin-2-amine]	1 to 10	≤ 1
Cc1cc(Nc2ncn(-c3ccc(F)c(F)c3)n2)cc(N2CC(N3CCOCC3)C2)c1 [Compound 720, 1-(3,4-difluorophenyl)-N-[3-methyl-5-(3-morpholinoazetidin-1-yl)phenyl]-1,2,4-triazol-3-amine]	1 to 10	10 to 100
Cc1cc(Nc2ncn(-c3cccc(F)c3)n2)cc(N2CC(N3CCOCC3)C2)c1 [Compound 721, 1-(3-fluorophenyl)-N-[3-methyl-5-(3-morpholinoazetidin-1-yl)phenyl]-1,2,4-triazol-3-amine]	10 to 100	≤ 1
Cc1cc(Nc2ncn(-c3cc(F)cc(F)c3)n2)cc(N2C3CCC2COC3)c1 [Compound 722, 1-(3,5-difluorophenyl)-N-[3-methyl-5-(3-oxa-8-azabicyclo[3.2.1]octan-8-yl)phenyl]-1,2,4-triazol-3-amine]	10 to 100	10 to 100
Fc1cc(F)cc(-n2cnc(Nc3cc(Cl)cc(N4CC(N5CCOCC5)C4)c3)n2)c1 [Compound 723, N-[3-chloro-5-(3-morpholinoazetidin-1-yl)phenyl]-1-(3,5-difluorophenyl)-1,2,4-triazol-3-amine]	10 to 100	100 to 1000
Cc1cc(Nc2ncn(-c3cc(F)cc(F)c3)n2)cc(N2CCOC3(COC3)C2)c1 [Compound 724, 1-(3,5-difluorophenyl)-N-[3-(2,5-dioxa-8-azaspiro[3.5]nonan-8-yl)-5-methyl-phenyl]-1,2,4-triazol-3-amine]	1 to 10	1 to 10
Cc1cc(Nc2ncn(-c3cccc(C(F)F)c3)n2)cc(N2CCC(N3CCOCC3)CC2)c1 [Compound 725, 1-[3-(difluoromethyl)phenyl]-N-[3-methyl-5-(4-morpholino-1-piperidyl)phenyl]-1,2,4-triazol-3-amine]	10 to 100	10 to 100
Fc1cc(F)cc(-n2cnc(Nc3cc(N4CCN(C5COC5)CC4)cc(N4CCN(C5COC5)CC4)n3)n2)c1 [Compound 726, N-[1-(3,5-difluorophenyl)-1,2,4-triazol-3-yl]-4,6-bis[4-(oxetan-3-yl)piperazin-1-yl]pyridin-2-amine]	1 to 10	1 to 10
Cc1cc(Nc2ncn(-c3cc(F)cc(F)c3)n2)cc(N2CC3CC2CO3)c1 (centres unmarked) [Compound 727, 1-(3,5-difluorophenyl)-N-[3-methyl-5-(2-oxa-5-azabicyclo[2.2.1]heptan-5-yl)phenyl]-1,2,4-triazol-3-amine]	10 to 100	≤ 1
Fc1ccc(-n2cnc(Nc3cc(C(F)(F)F)cc(N4CCN(C5COC5)CC4)n3)n2)cc1 [Compound 728, N-[1-(4-fluorophenyl)-1,2,4-triazol-3-yl]-6-[4-(oxetan-3-yl)piperazin-1-yl]-4-(trifluoromethyl)pyridin-2-amine]	10 to 100	≤ 1
COCC1CCN(c2cc(C(F)F)cc(Nc3ncn(-c4cc(F)cc(F)c4)n3)n2)CC1 [Compound 729, 4-(difluoromethyl)-N-[1-(3,5-difluorophenyl)-1,2,4-triazol-3-yl]-6-[4-(methoxymethyl)-1-piperidyl]pyridin-2-amine]	≤ 1	10 to 100
Cc1cc(Nc2ncn(-c3cc(F)cc(F)c3)n2)cc(N2CC(N3CCO[C@@H](C)C3)C2)c1 [Compound 730, 1-(3,5-difluorophenyl)-N-[3-methyl-5-[3-[(2S)-2-methylmorpholin-4-yl]azetidin-1-yl]phenyl]-1,2,4-triazol-3-amine]	10 to 100	10 to 100
Cc1cc(Nc2ncn(-c3cc(F)cc(F)c3)n2)nc(N2CCN(C)CC2)c1 [Compound 731, N-[1-(3,5-difluorophenyl)-1,2,4-triazol-3-yl]-4-methyl-6-(4-methylpiperazin-1-yl)pyridin-2-amine]	10 to 100	≤ 1
Fc1cc(F)cc(-n2cnc(Nc3cc(C(F)F)cc(N4CC(N5CCOCC5)C4)n3)n2)c1 [Compound 732, 4-(difluoromethyl)-N-[1-(3,5-difluorophenyl)-1,2,4-triazol-3-yl]-6-(3-morpholinoazetidin-1-yl)pyridin-2-amine]	1 to 10	1 to 10
Fc1cc(F)cc(-n2cnc(Nc3cc(N4CCN(C5COC5)CC4)cc(Cl)n3)n2)c1 [Compound 733, 6-chloro-N-[1-(3,5-difluorophenyl)-1,2,4-triazol-3-yl]-4-[4-(oxetan-3-yl)piperazin-1-yl]pyridin-2-amine]	1 to 10	1 to 10
CCc1cc(Nc2ncn(-c3cccc(C#N)c3)n2)cc(N2CCN(C3COC3)CC2)c1 [Compound 734, 3-[3-[3-ethyl-5-[4-(oxetan-3-yl)piperazin-1-yl]anilino]-1,2,4-triazol-1-yl]benzonitrile]	1 to 10	≤ 1
COc1ccc(-n2cnc(Nc3cc(C)cc(N4CC(N5CCOCC5)C4)c3)n2)cc1F [Compound 735, 1-(3-fluoro-4-methoxy-phenyl)-N-[3-methyl-5-(3-morpholinoazetidin-1-yl)phenyl]-1,2,4-triazol-3-amine]	1 to 10	1 to 10
CCc1cc(Nc2ncn(-c3cccc(C(F)F)c3)n2)cc(N2CCN(C3COC3)CC2)c1 [Compound 736, 1-[3-(difluoromethyl)phenyl]-N-[3-ethyl-5-[4-(oxetan-3-yl)piperazin-1-yl]phenyl]-1,2,4-triazol-3-amine]	10 to 100	≤ 1
N#Cc1cc(Nc2ncn(-c3cccc(F)c3)n2)cc(N2CCOCC2)c1 [Compound 737, 3-[[1-(3-fluorophenyl)-1,2,4-triazol-3-yl]amino]-5-morpholino-benzonitrile]	10 to 100	10 to 100
Cc1cc(Nc2ncn(-c3cc(F)cc(F)c3)n2)cc(N(C)CCN2CCOCC2)c1 [Compound 738, N3-[1-(3,5-difluorophenyl)-1,2,4-triazol-3-yl]-N1,5-dimethyl-N1-(2-morpholinoethyl)benzene-1,3-diamine]	10 to 100	≤ 1
Cc1cc(N2CC(N3CCOCC3)C2)cc(Nc2ncn(-c3cc(F)cc(F)c3)n2)c1C [Compound 739, 1-(3,5-difluorophenyl)-N-[2,3-dimethyl-5-(3-morpholinoazetidin-1-yl)phenyl]-1,2,4-triazol-3-amine]	10 to 100	10 to 100
